Test results: ChEMBL document CHEMBL4765232 (J Med Chem, 2016)

How the values were obtained:
[1] = Tmax in Sprague-Dawley rat at 25 mg/kg, po; assay type: ADME, organism-based; conditions: in vivo
[2] = target: T1, Histone-lysine N-methyltransferase EZH1 (Homo sapiens, UniProt Q92800)
T1 sequence (Q92800 whole entry): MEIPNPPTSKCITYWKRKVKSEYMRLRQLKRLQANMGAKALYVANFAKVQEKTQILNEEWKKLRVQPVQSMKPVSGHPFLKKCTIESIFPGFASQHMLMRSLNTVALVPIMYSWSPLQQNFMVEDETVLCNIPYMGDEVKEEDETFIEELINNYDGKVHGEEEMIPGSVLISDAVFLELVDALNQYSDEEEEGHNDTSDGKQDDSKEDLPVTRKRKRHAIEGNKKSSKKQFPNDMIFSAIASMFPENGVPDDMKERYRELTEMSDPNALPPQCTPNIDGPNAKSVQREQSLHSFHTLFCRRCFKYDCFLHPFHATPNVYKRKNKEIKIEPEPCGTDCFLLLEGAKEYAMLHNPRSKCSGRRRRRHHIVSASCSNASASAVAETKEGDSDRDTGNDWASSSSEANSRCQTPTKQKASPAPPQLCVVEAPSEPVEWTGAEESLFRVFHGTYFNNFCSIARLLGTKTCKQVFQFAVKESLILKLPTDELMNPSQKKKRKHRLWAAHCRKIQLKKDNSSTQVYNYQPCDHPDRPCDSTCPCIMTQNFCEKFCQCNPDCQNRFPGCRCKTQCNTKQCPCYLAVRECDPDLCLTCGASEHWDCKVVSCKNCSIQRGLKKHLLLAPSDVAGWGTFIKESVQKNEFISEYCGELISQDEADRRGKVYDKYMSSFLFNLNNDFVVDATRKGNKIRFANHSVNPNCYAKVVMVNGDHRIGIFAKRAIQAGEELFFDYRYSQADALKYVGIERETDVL
Description: Inhibition of EZH1 (unknown origin)

[3] = AUC (0 to infinity) in Balb/c mouse at 100 mg/kg, po formulated in 0.5 % methyl cellulose maintained at pH 3 to 4; assay type: ADME, organism-based; parameters: time infinity, route oral, dose 100 mg/kg; conditions: in vivo, pH 3, 100 mg/kg
[4] = Oral bioavailability in Balb/c mouse at 100 mg/kg formulated in 0.5 % methyl cellulose maintained at pH 3 to 4; assay type: ADME, organism-based; conditions: in vivo, pH 3, 100 mg/kg
[5] = Unbound clearance in Beagle dog at 1 mg/kg, iv; assay type: ADME, organism-based, Canis lupus familiaris; conditions: in vivo
[6] = target: Voltage-gated inwardly rectifying potassium channel KCNH2 (Homo sapiens, UniProt Q12809)
Description: Binding affinity to human ERG

CYP1A2 = target: T2, CYP1A2 (Homo sapiens, UniProt P05177); experiment: Inhibition of CYP1A2 (unknown origin) at 10 uM relative to control; assay type: ADME
T2 sequence (P05177 whole entry): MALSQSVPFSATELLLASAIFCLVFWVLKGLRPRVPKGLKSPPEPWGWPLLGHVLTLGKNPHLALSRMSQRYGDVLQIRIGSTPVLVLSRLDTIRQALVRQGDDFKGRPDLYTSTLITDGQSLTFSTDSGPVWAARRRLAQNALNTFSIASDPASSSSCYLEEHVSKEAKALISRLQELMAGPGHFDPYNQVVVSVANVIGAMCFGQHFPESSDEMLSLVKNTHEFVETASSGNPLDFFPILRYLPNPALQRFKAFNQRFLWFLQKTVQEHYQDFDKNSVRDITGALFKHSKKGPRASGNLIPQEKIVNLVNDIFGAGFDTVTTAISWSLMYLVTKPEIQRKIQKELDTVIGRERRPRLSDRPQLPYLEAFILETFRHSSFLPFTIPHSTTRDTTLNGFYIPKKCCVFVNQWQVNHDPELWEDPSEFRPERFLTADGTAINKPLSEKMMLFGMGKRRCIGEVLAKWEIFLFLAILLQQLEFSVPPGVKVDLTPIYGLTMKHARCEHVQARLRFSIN

CYP2C9 = CYP2C9 (Homo sapiens, UniProt P11712); experiment: Inhibition of CYP2C9 (unknown origin) at 10 uM relative to control; assay type: ADME
[7] = Half life in Beagle dog plasma at 1 mg/kg, iv; assay type: ADME, organism-based, Canis lupus familiaris
[8] = Volume of distribution at steady state in Beagle dog at 1 mg/kg, iv; assay type: ADME, organism-based, Canis lupus familiaris; conditions: in vivo, read-out: Vdss
[9] = Protein binding in dog plasma assessed as bound fraction; assay type: ADME, cell-free, Canis lupus familiaris; conditions: read-out: PPB (converted)
[10] = AUC (0 to infinity) in Sprague-Dawley rat at 25 mg/kg, po; assay type: ADME, organism-based; parameters: route oral, time infinity, dose 25 mg/kg; conditions: in vivo
[11] = Unbound AUC in Sprague-Dawley rat at 25 mg/kg, po; assay type: ADME, organism-based; conditions: in vivo
[12] = Protein binding in human plasma assessed as bound fraction; assay type: ADME, cell-free; conditions: read-out: PPB (converted)
[13] = Toxicity in Beagle dog at 50 to 500 mg/kg, po BID administered via gavage […] for 28 days; assay type: organism-based, Canis lupus familiaris; conditions: in vivo, 672 h, dose 50-500 mg/kg, time 28 day
[14] = Volume of distribution at steady in Balb/c mouse at 1 mg/kg, iv formulated with 5:60:35 DMA/PEG400/20% SBECD; assay type: ADME, organism-based; conditions: in vivo, read-out: Vdss
[15] = Oral bioavailability in Beagle dog at 5 mg/kg; assay type: ADME, organism-based, Canis lupus familiaris; conditions: in vivo
[16] = Unbound AUC in Beagle dog at 5 mg/kg, po; assay type: ADME, organism-based, Canis lupus familiaris; conditions: in vivo
[17] = Unbound AUC in Balb/c mouse at 100 mg/kg, po formulated in 0.5 % methyl cellulose maintained at pH 3 to 4; assay type: ADME, organism-based; conditions: in vivo, pH 3, 100 mg/kg
[18] = Clearance in Beagle dog at 1 mg/kg, iv relative to liver blood flow; assay type: ADME, organism-based, Canis lupus familiaris; conditions: in vivo
[19] = Drug concentration in tumor of CB17 SCID mouse xenografted with human KARPAS-422 cells at 160 mg/kg, po BID administered for 17 days and measured up to 12 hrs post last dose by LC-MS analysis; assay type: ADME, organism-based, Neoplasm; conditions: time 17 day, read-out: Ct
[20] = Fraction unbound in mouse plasma; assay type: ADME, cell-free
[21] = Cmax in Beagle dog at 5 mg/kg, po; assay type: ADME, organism-based, Canis lupus familiaris; parameters: route oral, dose 5 mg/kg; conditions: in vivo
KARPAS-422 = experiment: Antitumor activity against human KARPAS-422 cells harboring EZH2 Y641N mutant xenografted in CB17 SCID mouse assessed as tumor growth inhibition at 160 mg/kg, po BID administered for 25 days and measured post-treatment by caliper method relative to control; assay type: functional; conditions: KARPAS-422, po, 600 h, time 25 day, read-out: TGI
[22] = Unbound clearance in Balb/c mouse at 1 mg/kg, iv formulated with 5:60:35 DMA/PEG400/20% SBECD; assay type: ADME, organism-based; conditions: in vivo

CYP2C9, sequence (P11712 whole entry): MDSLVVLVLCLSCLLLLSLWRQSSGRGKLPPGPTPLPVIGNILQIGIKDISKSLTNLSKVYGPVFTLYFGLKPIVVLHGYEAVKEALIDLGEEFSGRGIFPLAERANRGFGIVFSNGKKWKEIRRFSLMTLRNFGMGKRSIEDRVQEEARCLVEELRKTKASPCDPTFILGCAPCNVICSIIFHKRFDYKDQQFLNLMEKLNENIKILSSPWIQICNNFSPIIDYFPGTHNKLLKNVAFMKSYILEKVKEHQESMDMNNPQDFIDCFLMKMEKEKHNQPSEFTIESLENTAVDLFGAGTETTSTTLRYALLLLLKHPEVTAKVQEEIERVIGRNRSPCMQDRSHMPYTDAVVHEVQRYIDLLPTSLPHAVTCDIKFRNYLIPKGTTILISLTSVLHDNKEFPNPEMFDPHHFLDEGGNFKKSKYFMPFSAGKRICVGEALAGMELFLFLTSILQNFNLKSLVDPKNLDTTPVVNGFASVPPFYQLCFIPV
Voltage-gated inwardly rectifying potassium channel KCNH2, sequence (Q12809 whole entry): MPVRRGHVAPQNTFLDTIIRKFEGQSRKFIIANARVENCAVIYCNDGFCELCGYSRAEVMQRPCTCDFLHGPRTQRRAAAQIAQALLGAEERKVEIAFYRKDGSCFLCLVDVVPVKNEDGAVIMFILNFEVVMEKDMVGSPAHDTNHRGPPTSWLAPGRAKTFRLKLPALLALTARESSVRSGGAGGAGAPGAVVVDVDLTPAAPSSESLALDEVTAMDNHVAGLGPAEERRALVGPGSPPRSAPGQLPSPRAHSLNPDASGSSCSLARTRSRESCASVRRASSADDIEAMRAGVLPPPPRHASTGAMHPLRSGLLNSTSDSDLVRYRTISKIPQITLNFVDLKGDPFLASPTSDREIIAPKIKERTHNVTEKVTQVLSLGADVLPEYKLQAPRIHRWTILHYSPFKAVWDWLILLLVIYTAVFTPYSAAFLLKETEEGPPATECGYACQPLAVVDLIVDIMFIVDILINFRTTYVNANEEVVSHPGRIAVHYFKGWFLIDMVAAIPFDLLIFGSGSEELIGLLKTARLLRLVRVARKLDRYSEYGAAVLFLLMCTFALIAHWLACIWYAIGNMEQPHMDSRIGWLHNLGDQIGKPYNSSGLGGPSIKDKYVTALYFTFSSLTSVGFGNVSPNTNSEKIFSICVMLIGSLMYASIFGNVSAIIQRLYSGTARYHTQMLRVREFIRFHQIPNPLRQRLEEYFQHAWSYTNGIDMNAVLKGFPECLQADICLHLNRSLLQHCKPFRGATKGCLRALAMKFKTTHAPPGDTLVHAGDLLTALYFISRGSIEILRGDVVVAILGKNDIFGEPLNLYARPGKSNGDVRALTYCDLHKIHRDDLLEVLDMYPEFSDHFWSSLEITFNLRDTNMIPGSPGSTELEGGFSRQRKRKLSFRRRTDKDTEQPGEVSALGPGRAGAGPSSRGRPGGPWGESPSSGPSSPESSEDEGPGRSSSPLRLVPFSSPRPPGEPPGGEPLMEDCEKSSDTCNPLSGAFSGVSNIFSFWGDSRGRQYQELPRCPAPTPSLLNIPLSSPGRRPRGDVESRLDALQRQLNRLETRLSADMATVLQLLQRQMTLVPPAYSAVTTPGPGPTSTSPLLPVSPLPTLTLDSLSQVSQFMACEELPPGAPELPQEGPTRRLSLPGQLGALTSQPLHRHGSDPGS

COc1cc(C)[nH]c(=O)c1CNC(=O)c1c(C)n([C@H](C)C2CCN(CC(F)(F)F)CC2)c2ccccc12 [CPI-1205]
Tmax [1]: 0.5 h
IC50 [2]: 0.052 µM
AUC [3]: 88.88 µM·h
F [4]: 100%
CL free [5]: 242 mL/min/kg
IC50 [6]: 21.3 µM
inhibition at 10 µM (CYP1A2): 15%
inhibition at 10 µM (CYP2C9): 11.1%
half-life [7]: 1.84 h
Vd [8]: 1.6 L/kg
fraction unbound [9]: 0.097
AUC(0-inf) [10]: 7.06 µM·h
fAUC [11]: 0.713 µM·h
fraction unbound [12]: 0.072
Activity [13]: Non-Toxic
Vd [14]: 1.36 L/kg
F [15]: 46.2%
fAUC [16]: 0.309 µM·h
fAUC [17]: 1.87 µM·h
CL [18]: 76%
concentration at 408 h [19]: 5290 ng/g
Fu [20]: 0.021%
Cmax [21]: 1240 nM
inhibition in vivo at 160 mg/kg (KARPAS-422): > 97%
CL free [22]: 1715 mL/min/kg
